According to patent publication US12486269B2 (Aconcagua Bio, Inc., priority 2024, dated 2025):

Key:
[1] = target: T1, COS-7/AMY3 (human calcitonin receptor (CTR) and RAMP3) (Homo sapiens, UniProt O60896+P30988); assay: Amylin Receptor cAMP Assay II; format: cell-based; settings: values marked **: Amylin Receptor cAMP Assay II; COS-7/AMY3 cells, cAMP dynamic 2 kit, 30 min; read-out: Amylin Receptor cAMP Stimulation Activity: EC50
T1 construct: expressed in transfected cells; host or cells: COS-7
T1 sequence (O60896 24-148, one chain of several): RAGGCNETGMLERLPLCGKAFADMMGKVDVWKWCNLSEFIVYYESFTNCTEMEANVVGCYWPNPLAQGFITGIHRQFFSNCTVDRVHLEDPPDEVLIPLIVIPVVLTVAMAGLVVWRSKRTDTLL
How it was run: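 COS-7 cells stably co-expressing human CTR and RAMP3 (AMY3), 2000 cells/well in HBSS with 20 mM HEPES, 0.5 mM IBMX, 0.1% casein, stimulated with compound for 30 min at 37 °C. cAMP measured by HTRF (665/615 nm), activity normalized between vehicle and maximal control.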

[2] = target: T2, human calcitonin receptor (CTR) (Homo sapiens, UniProt P30988); assay: Calcitonin Receptor (CTR) cAMP Assay; format: cell-based; settings: COS7-human CTR Clone #2 stable cell line, cAMP dynamic 2 kit, 30 min; read-out: Calcitonin Receptor cAMP Stimulation Activity: EC50
T2 construct: expressed in transfected cells; host or cells: COS-7 (COS7-human CTR Clone #2)
T2 sequence (P30988 25-474): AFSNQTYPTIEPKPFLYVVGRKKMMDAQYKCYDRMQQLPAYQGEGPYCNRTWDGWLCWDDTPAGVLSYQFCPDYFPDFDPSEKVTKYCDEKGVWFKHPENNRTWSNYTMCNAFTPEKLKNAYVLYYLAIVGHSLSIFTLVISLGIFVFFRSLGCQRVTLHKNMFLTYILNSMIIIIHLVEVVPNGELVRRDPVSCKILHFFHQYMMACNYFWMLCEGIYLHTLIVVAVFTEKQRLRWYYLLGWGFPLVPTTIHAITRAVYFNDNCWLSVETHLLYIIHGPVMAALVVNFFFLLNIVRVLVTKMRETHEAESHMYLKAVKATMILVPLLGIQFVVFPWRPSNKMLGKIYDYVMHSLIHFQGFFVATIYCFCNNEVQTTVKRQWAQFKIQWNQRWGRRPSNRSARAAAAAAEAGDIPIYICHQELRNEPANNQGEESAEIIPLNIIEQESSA
How it was run: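 COS-7 cells stably expressing human CTR (2000 cells/well) were incubated 30 min at 37 °C with 4-fold serially diluted compound in HBSS/20 mM HEPES/0.5 mM IBMX/0.1% casein. cAMP was detected by HTRF (665/615 nm) after 1 h at RT. % activity was normalised to vehicle and positive controls.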

Compound | EC50 [1] [nM] | EC50 [2] [nM]
COc1cccc2c1CC[C@H]2N1Cc2cc(-c3c4c(nc(CCc5ccc(F)cc5)c3-c3n[nH]c(=O)o3)C35CC(CN3C4=O)C5)ccc2C1=O [Compound 240, (R)-5-(2-(4-fluorophenethyl)-4-(2-(4-methoxy-2,3-dihydro-1H-inden-1-yl)-1-oxoisoindolin-5-yl)-5-oxo-8,9-dihydro-5H,7H-8,9a-methanopyrido[2,3-a]pyrrolizin-3-yl)-1,3,4-oxadiazol-2(3H)-one] | 182 | 8.9
COc1cccc2c1CC[C@H]2Nc1nccc2cc(-c3c4c(nc(CCc5ccn6ccnc6c5)c3-c3n[nH]c(=O)o3)[C@@H]3CCCN3C4=O)sc12 [Compound 241, 5-((S)-2-(2-(imidazo[1,2-a]pyridin-7-yl)ethyl)-4-(7-(((R)-4-methoxy-2,3-dihydro-1H-inden-1-yl)amino)thieno[2,3-c]pyridin-2-yl)-5-oxo-7,8,9,9a-tetrahydro-5H-pyrido[2,3-a]pyrrolizin-3-yl)-1,3,4-oxadiazol-2(3H)-one] | 33.5 | 1.72
O=C1c2c(nc(CCc3ccc(F)cc3)c(-c3n[nH]c(=O)o3)c2-c2cc3ccnc(N[C@@H]4CCc5nc(C(F)(F)F)ccc54)c3s2)[C@@H]2CCCN12 [Compound 247, 5-((S)-2-(4-fluorophenethyl)-5-oxo-4-(7-(((R)-2-(trifluoromethyl)-6,7-dihydro-5H-cyclopenta[b]pyridin-5-yl)amino)thieno[2,3-c]pyridin-2-yl)-7,8,9,9a-tetrahydro-5H-pyrido[2,3-a]pyrrolizin-3-yl)-1,3,4-oxadiazol-2(3H)-one] | 2410 | 21.1
O=C1c2c(nc(CCc3ccc(F)cc3)c(-c3n[nH]c(=O)o3)c2-c2cc3ccnc(Cc4coc5ccccc45)c3s2)[C@@H]2CCCN12 [Compound 248, (S)-5-(4-(7-(benzofuran-3-ylmethyl)thieno[2,3-c]pyridin-2-yl)-2-(4-fluorophenethyl)-5-oxo-7,8,9,9a-tetrahydro-5H-pyrido[2,3-a]pyrrolizin-3-yl)-1,3,4-oxadiazol-2(3H)-one] | 4200 | 102
Cn1cc(Cc2nccc3cc(-c4c5c(nc(CCc6ccc(F)cc6)c4-c4n[nH]c(=O)o4)[C@@H]4CCCN4C5=O)sc23)c2ccccc21 [Compound 249, (S)-5-(2-(4-fluorophenethyl)-4-(7-((1-methyl-1H-indol-3-yl)methyl)thieno[2,3-c]pyridin-2-yl)-5-oxo-7,8,9,9a-tetrahydro-5H-pyrido[2,3-a]pyrrolizin-3-yl)-1,3,4-oxadiazol-2(3H)-one] | 62800 | 857
COc1cccc2c1CC[C@H]2Nc1nccc2cc(-c3c4c(nc(C[C@@H]5CCc6cc(F)ccc65)c3-c3n[nH]c(=O)o3)[C@@H]3CCCN3C4=O)sc12 [Compound 250, 5-((S)-2-(((S)-5-fluoro-2,3-dihydro-1H-inden-1-yl)methyl)-4-(7-(((R)-4-methoxy-2,3-dihydro-1H-inden-1-yl)amino)thieno[2,3-c]pyridin-2-yl)-5-oxo-7,8,9,9a-tetrahydro-5H-pyrido[2,3-a]pyrrolizin-3-yl)-1,3,4-oxadiazol-2(3H)-one] | 102 | 4.5
COc1cccc2c1CC(F)(F)[C@@H]2Nc1nccc2cc(-c3c4c(nc(CCc5ccc(F)cc5)c3-c3n[nH]c(=O)o3)[C@@H]3CCCN3C4=O)sc12 [Compound 251, 5-((S)-4-(7-(((R)-2,2-difluoro-4-methoxy-2,3-dihydro-1H-inden-1-yl)amino)thieno[2,3-c]pyridin-2-yl)-2-(4-fluorophenethyl)-5-oxo-7,8,9,9a-tetrahydro-5H-pyrido[2,3-a]pyrrolizin-3-yl)-1,3,4-oxadiazol-2(3H)-one] | 82.8 | 7.28
CC(c1ccc(C#N)cn1)N1C(=O)C(C)(C)Oc2cc(-c3c4c(nc(CCc5ccc(F)cc5)c3-c3n[nH]c(=O)o3)[C@@H]3CCCN3C4=O)ccc21 (stereo partly drawn) [Compound 252, 6-(1-(7-((S)-2-(4-fluorophenethyl)-5-oxo-3-(5-oxo-4,5-dihydro-1,3,4-oxadiazol-2-yl)-7,8,9,9a-tetrahydro-5H-pyrido[2,3-a]pyrrolizin-4-yl)-2,2-dimethyl-3-oxo-2H-benzo[b][1,4]oxazin-4(3H)-yl)ethyl)nicotinonitrile] | 248 | 7.9

Stronger by EC50 [1], values ahead:

EC50 [1] [nM] | EC50 [2] [nM] | Compound
18.4 | 0.668 | COc1cccc2c1CC[C@H]2Nc1nccc2cc(-c3c4c(nc(CCc5ccc(Cl)cc5)c3-c3n[nH]c(=O)o3)[C@@H]3CCCN3C4=O)sc12 [Compound 242, 5-((S)-2-(4-chlorophenethyl)-4-(7-(((R)-4-methoxy-2,3-dihydro-1H-inden-1-yl)amino)thieno[2,3-c]pyridin-2-yl)-5-oxo-7,8,9,9a-tetrahydro-5H-pyrido[2,3-a]pyrrolizin-3-yl)-1,3,4-oxadiazol-2(3H)-one]
11.2 | 1.18 | COc1cccc2c1CC[C@H]2Nc1nccc2cc(-c3c4c(nc(CCc5ccc(-n6cccn6)cc5)c3-c3n[nH]c(=O)o3)[C@@H]3CCCN3C4=O)sc12 [Compound 243, 5-((S)-2-(4-(1H-pyrazol-1-yl)phenethyl)-4-(7-(((R)-4-methoxy-2,3-dihydro-1H-inden-1-yl)amino)thieno[2,3-c]pyridin-2-yl)-5-oxo-7,8,9,9a-tetrahydro-5H-pyrido[2,3-a]pyrrolizin-3-yl)-1,3,4-oxadiazol-2(3H)-one]
22.7 | 1.16 | COc1ccc(CCc2nc3c(c(-c4cc5ccnc(N[C@@H]6CCc7c(OC)cccc76)c5s4)c2-c2n[nH]c(=O)o2)C(=O)N2CCC[C@@H]32)cc1F [Compound 244, 5-((S)-2-(3-fluoro-4-methoxyphenethyl)-4-(7-(((R)-4-methoxy-2,3-dihydro-1H-inden-1-yl)amino)thieno[2,3-c]pyridin-2-yl)-5-oxo-7,8,9,9a-tetrahydro-5H-pyrido[2,3-a]pyrrolizin-3-yl)-1,3,4-oxadiazol-2(3H)-one]
19.1 | 0.469 | COc1cccc2c1CC[C@H]2Nc1nccc2cc(-c3c4c(nc(CCc5cc(F)cs5)c3-c3n[nH]c(=O)o3)[C@@H]3CCCN3C4=O)sc12 [Compound 245, 5-((S)-2-(2-(4-fluorothiophen-2-yl)ethyl)-4-(7-(((R)-4-methoxy-2,3-dihydro-1H-inden-1-yl)amino)thieno[2,3-c]pyridin-2-yl)-5-oxo-7,8,9,9a-tetrahydro-5H-pyrido[2,3-a]pyrrolizin-3-yl)-1,3,4-oxadiazol-2(3H)-one]
6.78 | 0.219 | O=C1c2c(nc(CCc3ccc(F)cc3)c(-c3n[nH]c(=O)o3)c2-c2cc3ccnc(N[C@@H]4CCc5ccc(F)cc54)c3s2)[C@@H]2CCCN12 [Compound 246, 5-((S)-4-(7-(((R)-6-fluoro-2,3-dihydro-1H-inden-1-yl)amino)thieno[2,3-c]pyridin-2-yl)-2-(4-fluorophenethyl)-5-oxo-7,8,9,9a-tetrahydro-5H-pyrido[2,3-a]pyrrolizin-3-yl)-1,3,4-oxadiazol-2(3H)-one]
1.88 | 0.0708 | Cc1cc2cc(-c3c4c(nc(CCc5ccc(F)cc5)c3-c3n[nH]c(=O)o3)[C@@H]3CCCN3C4=O)sc2c(N[C@@H]2CCc3cc(F)c(F)cc32)n1 [Compound 253, 5-((S)-4-(7-(((R)-5,6-difluoro-2,3-dihydro-1H-inden-1-yl)amino)-5-methylthieno[2,3-c]pyridin-2-yl)-2-(4-fluorophenethyl)-5-oxo-7,8,9,9a-tetrahydro-5H-pyrido[2,3-a]pyrrolizin-3-yl)-1,3,4-oxadiazol-2(3H)-one]
0.707 | 0.0659 | Cc1cc2cc(-c3c4c(nc(CCc5ccc(F)cc5)c3-c3n[nH]c(=O)o3)[C@@H]3COCCN3C4=O)sc2c(N[C@@H]2CCc3cc(F)c(F)cc32)n1 [Compound 254, (R)-4-(7-(((R)-5,6-difluoro-2,3-dihydro-1H-inden-1-yl)amino)-5-methylthieno[2,3-c]pyridin-2-yl)-2-(4-fluorophenethyl)-3-(5-oxo-4,5-dihydro-1,3,4-oxadiazol-2-yl)-7,8,10,10a-tetrahydro-5H-pyrido[2′,3′:3,4]pyrrolo[2,1-c][1,4]oxazin-5-one]
0.318 | 0.0127 | Cc1cc2cc(-c3c4c(nc(CCc5ccc(F)cc5)c3-c3n[nH]c(=O)o3)C35CC(CN3C4=O)C5)sc2c(N[C@@H]2CCc3cc(F)c(F)cc32)n1 [Compound 255, (R)-5-(4-(7-((5,6-difluoro-2,3-dihydro-1H-inden-1-yl)amino)-5-methylthieno[2,3-c]pyridin-2-yl)-2-(4-fluorophenethyl)-5-oxo-8,9-dihydro-5H,7H-8,9a-methanopyrido[2,3-a]pyrrolizin-3-yl)-1,3,4-oxadiazol-2(3H)-one]
